Results reported in patent publication US20100298141A1, “SUBSTITUTED PYRIDINE N-OXIDE HERBICIDES” (E. I. DU PONT DE NEMOURS AND COMPANY, priority 2007, published 2010).

Tests used:
[1] = test system: Russian thistle; assay: Test C pre-/postemergence test; format: in vivo, Salsola kali
Procedure, shortened: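 Compounds in a non-phytotoxic solvent with surfactant applied preemergence to seeded pots and, at the same time, postemergence to plants 2–18 cm tall (1- to 4-leaf stage). Paddy tests: pots flooded to 3 cm, compound applied into the water, depth held throughout.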

[2] = test system: Surinam grass; assay: Test F preemergence test; format: in vivo, Brachiaria decumbens; conditions: scale 0 to 100
Procedure, shortened: (§1)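 Visual ratings relative to controls, taken after 14 to 21 days in a greenhouse. Test chemicals, formulated in a surfactant-containing non-phytotoxic solvent mixture, were applied preemergence to sown seeds or postemergence to sugarcane plants.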

[3] = test system: large crabgrass; assay: Test F preemergence test; format: in vivo, Digitaria sanguinalis; conditions: scale 0 to 100
Procedure, shortened: as §1

[4] = test system: kochia; assay: Test F preemergence test; format: in vivo, Kochia scoparia; conditions: scale 0 to 100
Procedure, shortened: as §1

[5] = test system: mustard; assay: Test F preemergence test; format: in vivo, Brassica nigra; conditions: scale 0 to 100
Procedure, shortened: as §1

[6] = test system: guineagrass; assay: Test F preemergence test; format: in vivo, Panicum maximum; conditions: scale 0 to 100
Procedure, shortened: as §1

[7] = test system: dallisgrass; assay: Test F preemergence test; format: in vivo, Paspalum dilatatum; conditions: scale 0 to 100
Procedure, shortened: as §1

[8] = test system: barnyardgrass; assay: Test F preemergence test; format: in vivo, Echinochloa crus-galli
Procedure, shortened: as §1

[9] = test system: southern sandbur; assay: Test F preemergence test; format: in vivo, Cenchrus echinatus; conditions: scale 0 to 100
Procedure, shortened: as §1

[10] = test system: Italian ryegrass; assay: Test F preemergence test; format: in vivo, Lolium multiflorum; conditions: scale 0 to 100
Procedure, shortened: as §1

[11] = test system: common purslane; assay: Test F preemergence test; format: in vivo, Portulaca oleracea; conditions: scale 0 to 100
Procedure, shortened: as §1

[12] = test system: common groundsel; assay: Test F preemergence test; format: in vivo, Senecio vulgaris; conditions: scale 0 to 100
Procedure, shortened: as §1

[13] = test system: Virginia dayflower; assay: Test F preemergence test; format: in vivo, Commelina virginica; conditions: scale 0 to 100
Procedure, shortened: as §1

[14] = test system: annual bluegrass; assay: Test F preemergence test; format: in vivo, Poa annua; conditions: scale 0 to 100
Procedure, shortened: as §1

[15] = test system: quackgrass; assay: Test F preemergence test; format: in vivo, Elytrigia repens; conditions: scale 0 to 100
Procedure, shortened: as §1

[16] = test system: field bindweed; assay: Test F preemergence test; format: in vivo, Convolvulus arvensis; conditions: scale 0 to 100
Procedure, shortened: as §1

[17] = test system: common mallow; assay: Test F preemergence test; format: in vivo, Malva sylvestris; conditions: scale 0 to 100
Procedure, shortened: as §1

[18] = 62 g ai/ha, Preemergence, scale 0 to 100

Compound: CC(Oc1c(C[S+]([O-])c2cccc[n+]2[O-])c(C(F)(F)F)nn1C)C(F)(F)F (centres unmarked) [Compound 77]
- Russian Thistle plant response rating [1, 18]: 100
- Russian Thistle plant response rating ([1]; 125 g ai/ha, preemergence, scale 0 (no effect) to 100 (complete control)): 100
- Plant response rating, Russian Thistle ([1]; Preemergence, 31 g ai/ha, scale 0 to 100 (0 no effect, 100 complete control)): 100
- Russian Thistle plant response rating ([1]; preemergence, 250 g ai/ha, scale 0 (no effect) to 100 (complete control)): 100
- Plant response rating, Surinam Grass ([2]; 16 g ai/ha, preemergence): 0
- Surinam Grass plant response rating ([2]; 125 g ai/ha, preemergence): 98
- Plant response rating, Surinam Grass ([2]; Preemergence, 62 g ai/ha): 95
- Plant response rating, Surinam Grass ([2]; Preemergence, 31 g ai/ha): 70
- Plant response rating, Crabgrass, Large ([3]; 16 g ai/ha, preemergence): 0
- Crabgrass, Large plant response rating ([3]; 62 g ai/ha, Preemergence): 95
- Crabgrass, Large plant response rating ([3]; 125 g ai/ha, preemergence): 100
- Plant response rating, Crabgrass, Large ([3]; Preemergence, 31 g ai/ha): 85
- Plant response rating, Kochia ([4]; 16 g ai/ha, preemergence): 0
- Kochia plant response rating ([4]; 62 g ai/ha, Preemergence): 75
- Kochia plant response rating ([4]; 125 g ai/ha, preemergence): 100
- Plant response rating, Kochia ([4]; Preemergence, 31 g ai/ha): 0
- Plant response rating, Black Mustard ([5]; 16 g ai/ha, preemergence): 0
- Black Mustard plant response rating ([5]; 62 g ai/ha, Preemergence): 65
- Black Mustard plant response rating ([5]; 125 g ai/ha, preemergence): 100
- Plant response rating, Black Mustard ([5]; Preemergence, 31 g ai/ha): 20
- Plant response rating, Guineagrass ([6]; 16 g ai/ha, preemergence): 15
- Guineagrass plant response rating ([6]; 62 g ai/ha, Preemergence): 100
- Guineagrass plant response rating ([6]; 125 g ai/ha, preemergence): 100
- Plant response rating, Guineagrass ([6]; Preemergence, 31 g ai/ha): 80
- Plant response rating, Dallisgrass ([7]; 16 g ai/ha, preemergence): 0
- Dallisgrass plant response rating ([7]; 62 g ai/ha, Preemergence): 98
- Dallisgrass plant response rating ([7]; 125 g ai/ha, preemergence): 100
- Plant response rating, Dallisgrass ([7]; Preemergence, 31 g ai/ha): 30
- Plant response rating, Barnyardgrass ([8]; 16 g ai/ha, preemergence, scale 0 to 100 (0 no effect, 100 complete control)): 65
- Barnyardgrass plant response rating [8, 18]: 100
- Barnyardgrass plant response rating ([8]; 125 g ai/ha, preemergence, scale 0 to 100): 100
- Plant response rating, Barnyardgrass ([8]; Preemergence, 31 g ai/ha, scale 0 to 100): 90
- Plant response rating, Sandbur ([9]; 16 g ai/ha, preemergence): 0
- Sandbur plant response rating ([9]; 125 g ai/ha, preemergence): 100
- Plant response rating, Sandbur ([9]; Preemergence, 62 g ai/ha): 95
- Plant response rating, Sandbur ([9]; Preemergence, 31 g ai/ha): 90
- Plant response rating, Ryegrass, Italian ([10]; 16 g ai/ha, preemergence): 0
- Ryegrass, Italian plant response rating ([10]; 125 g ai/ha, preemergence): 100
- Plant response rating, Ryegrass, Italian ([10]; Preemergence, 62 g ai/ha): 90
- Plant response rating, Ryegrass, Italian ([10]; Preemergence, 31 g ai/ha): 40
- Plant response rating, Purslane ([11]; 16 g ai/ha, preemergence): 0
- Purslane plant response rating ([11]; 62 g ai/ha, Preemergence): 20
- Purslane plant response rating ([11]; 125 g ai/ha, preemergence): 65
- Plant response rating, Purslane ([11]; Preemergence, 31 g ai/ha): 0
- Plant response rating, Groundsel ([12]; 16 g ai/ha, preemergence): 0
- Groundsel plant response rating ([12]; 62 g ai/ha, Preemergence): 0
- Groundsel plant response rating ([12]; 125 g ai/ha, preemergence): 0
- Plant response rating, Groundsel ([12]; Preemergence, 31 g ai/ha): 0
- Plant response rating, Dayflower ([13]; 16 g ai/ha, preemergence): 0
- Dayflower plant response rating ([13]; 62 g ai/ha, Preemergence): 0
- Dayflower plant response rating ([13]; 125 g ai/ha, preemergence): 100
- Plant response rating, Dayflower ([13]; Preemergence, 31 g ai/ha): 0
- Plant response rating, Bluegrass ([14]; 16 g ai/ha, preemergence): 0
- Bluegrass plant response rating ([14]; 62 g ai/ha, Preemergence): 0
- Bluegrass plant response rating ([14]; 125 g ai/ha, preemergence): 75
- Plant response rating, Bluegrass ([14]; Preemergence, 31 g ai/ha): 0
- Plant response rating, Quackgrass ([15]; 16 g ai/ha, preemergence): 0
- Quackgrass plant response rating ([15]; 62 g ai/ha, Preemergence): 40
- Quackgrass plant response rating ([15]; 125 g ai/ha, preemergence): 80
- Plant response rating, Quackgrass ([15]; Preemergence, 31 g ai/ha): 0
- Plant response rating, Field Bindweed ([16]; 16 g ai/ha, preemergence): 0
- Field Bindweed plant response rating ([16]; 62 g ai/ha, Preemergence): 35
- Field Bindweed plant response rating ([16]; 125 g ai/ha, preemergence): 70
- Plant response rating, Field Bindweed ([16]; Preemergence, 31 g ai/ha): 0
- Plant response rating, Mallow ([17]; 16 g ai/ha, preemergence): 65
- Mallow plant response rating ([17]; 62 g ai/ha, Preemergence): 90
- Mallow plant response rating ([17]; 125 g ai/ha, preemergence): 100
- Plant response rating, Mallow ([17]; Preemergence, 31 g ai/ha): 90
